Test results as given in patent US20260083687A1, “COMPOUNDS FOR REDUCING LACTATION AND IMPROVING HEALTH” (AHV International B.V., priority 2022, published 2026).
Where two headings read alike, the source gives them in different places.

Key:
[1] = test system: cows (Holstein Friesians); assay: Treatment with DPD analogs (organosulfur compounds) and milk yield (Example 8); assay type: in vivo, cow
Protocol: Study design. 36 cows (Holstein Friesians) from 2 farms were used. The feed of the cows was composed of TMR, including corn and grass silage, supplemented with soya and minerals. […] The cows were milked in a milk robot. […] The cows were milked twice a day. The cows were housed in free stables. […] Placebo treatment corresponded to administration of two gel capsules containing 180 ml water.
For this study dosages synthetic compounds (>96% purity) as indicated in table 17 were administered to cows. The objective of this study was to compare the activity of a corresponding dose of the compounds expressed in mol, based on the number of moles that is present in 80 ml di-n-propyl disulfide at 20° C. The number of moles was converted to ml or grams of the tested compounds. For this purpose, the molecular weight and specific density were used in the calculations. The compounds were formulated in the gel capsules as indicated in the previous examples.
Before the various dosages were administered, the milk yields were monitored for at least 5 days.

[2] = test system: cows (Holstein Friesians); conditions: for Milk yield Last milking: before administration; for % reduction after 24 h / % reduction after 48 h / % reduction after 72 h / % reduction after 96 h: vs milk yield before treatment
Protocol: Twelve cows (Holstein Friesians) from 1 farm were used. The start of the dry period of every cow was between 40 to 60 days before calving. The cows were milked twice a day at fixed times and the cows were selected on a milk production of >12.5 litres/day 24 hours before PTSO administering took place. No extra measures were taken to stimulate dry-off, such as changes in feed ration or changes in milking frequency. The cows were milked twice a day. The cows were housed in free stables. A porcine gelatine capsule with PTSO or placebo gel capsule with water were administered 7 to 14 days before the start of the dry-off period.
For this study various dosages synthetic PTSO (>98% purity) were administered to cows with a milk yield of at least 12.5 kg milk per day. The following dosages were applied: 0, 10, 20, 40 ml of pure PTSO. For each dosage 3 cows were used.
Before the various dosages were administered the milk yield was monitored for 14 days. The gel capsules were orally administered by a bolus shooter, the gel capsule for the placebo group contained tap water. Administering of a capsule took place between the morning and afternoon milking. On t=14 days the PTSO-containing capsules and the placebo capsules were administered and the milk yield was monitored 48 hours more.

cows = conditions: cited from earlier work
dairy cows = conditions: single injection 5.6 mg at dry-off, cited from earlier work
goats = conditions: single injection 5.6 mg at dry-off; cited from earlier work
[3] = individual cows, dose per compound as listed in E284
[4] = vs milk yield before treatment, individual cows, dose per compound as listed in E284

Compound: CCCSS(=O)(=O)CCC [PTSO, di-n-propyl thiosulfonate]
- % reduction after 24 h average (milk yield) ([1]; 24 h after one oral gel capsule, dose equimolar to 80 ml di-n-propyl disulfide, negative value = increase in yield): 61%
- % reduction after 48 h average (milk yield) ([1]; 48 h after one oral gel capsule, dose equimolar to 80 ml di-n-propyl disulfide, negative value = increase in yield): 71%
- % reduction after 72 h average (milk yield) ([1]; 72 h after one oral gel capsule, dose equimolar to 80 ml di-n-propyl disulfide, negative value = increase in yield): 41%
- % reduction after 96 h average (milk yield) ([1]; 96 h after one oral gel capsule, dose equimolar to 80 ml di-n-propyl disulfide, negative value = increase in yield): 4.7%
- average reduction after 24, 48 and 72 h (%) (milk yield) ([1]; average of 24, 48 and 72 h after one oral gel capsule, dose equimolar to 80 ml di-n-propyl disulfide): 58%
- Average reduction after 24 and 48 h (%) (milk yield) ([1]; average of 24 and 48 h after one oral gel capsule, dose equimolar to 80 ml di-n-propyl disulfide): 66%
- Milk yield (kg) Last milking ([1]; before administration, individual cows, single oral gel capsule dose per cow (ml unless g): diethyl disulfide 63, di-n-propyl disulfide 80, diisopropyl disulfide 160, di-n-butyl disulfide 100, dibenzyl disulfide 102, diethyl sulfide 55, di-n-propyl sulfide 72, diisopropyl sulfide 74, di-n-butyl sulfide 90, dibenzyl sulfide 96 g, diphenyl sulfide 85, di-n-propyl trisulfide 98, di-n-propyl sulfone 6): 15.7 kg
- Average reduction after 24 and 48 h (%) [1, 3]: 66%
- Milk yield (kg) After 24 h [1, 3]: 7.7 kg
- Milk yield (kg) After 48 h [1, 3]: 4.6 kg
- Milk yield (kg) After 72 h [1, 3]: 9.3 kg
- Milk yield (kg) After 96 h [1, 3]: 14.5 kg
- average reduction after 24, 48 and 72 h (%) [1, 3]: 58%
- % reduction after 24 h [1, 4]: 61%
- % reduction after 48 h [1, 4]: 71%
- % reduction after 72 h [1, 4]: 41%
- % reduction after 96 h [1, 4]: 4.7%
- Average reduction 24 and 48 h (%) ([2]; 10 ml PTSO): −5%
- Milk yield After 24 h ([2]; 10 ml PTSO): 19.89 kg
- Milk yield After 48 h ([2]; 10 ml PTSO): 19.51 kg
- Milk yield After 72 h ([2]; 10 ml PTSO): 18.94 kg
- Milk yield After 96 h ([2]; 10 ml PTSO): 18.67 kg
- Milk yield Last milking ([2]; 10 ml PTSO): 18.76 kg
- % reduction after 24 h ([2]; 10 ml PTSO): −6%
- % reduction after 48 h ([2]; 10 ml PTSO): −4%
- % reduction after 72 h ([2]; 10 ml PTSO): −0.03%
- % reduction after 96 h ([2]; 10 ml PTSO): 0.01%
- Average reduction 24 and 48 h (%) ([2]; 20 ml PTSO): 66%
- Milk yield After 24 h ([2]; 20 ml PTSO): 7.7 kg
- Milk yield After 48 h ([2]; 20 ml PTSO): 4.56 kg
- Milk yield After 72 h ([2]; 20 ml PTSO): 9.31 kg
- Milk yield After 96 h ([2]; 20 ml PTSO): 14.99 kg
- effect on milk yield compared to the milk yield before treatment ([2]; 20 ml PTSO): clear lowering on milk yield
- Milk yield Last milking ([2]; 20 ml PTSO): 15.72 kg
- % reduction after 24 h ([2]; 20 ml PTSO): 61%
- % reduction after 48 h ([2]; 20 ml PTSO): 71%
- % reduction after 72 h ([2]; 20 ml PTSO): 41%
- % reduction after 96 h ([2]; 20 ml PTSO): 4.7%
- Average reduction 24 and 48 h (%) ([2]; 40 ml PTSO): 55%
- Milk yield After 24 h ([2]; 40 ml PTSO): 8.89 kg
- Milk yield After 48 h ([2]; 40 ml PTSO): 7.04 kg
- Milk yield After 72 h ([2]; 40 ml PTSO): 9.06 kg
- Milk yield After 96 h ([2]; 40 ml PTSO): 15.87 kg
- Milk yield Last milking ([2]; 40 ml PTSO): 16.77 kg
- % reduction after 24 h ([2]; 40 ml PTSO): 52%
- % reduction after 48 h ([2]; 40 ml PTSO): 58%
- % reduction after 72 h ([2]; 40 ml PTSO): 46%
- % reduction after 96 h ([2]; 40 ml PTSO): 5.4%
- time to complete recovery of milk yield ([2]; after PTSO administration): 3 to 4 days
- damage to the udder ([2]; bovine, in vivo): does not cause any damage to the udder
- dosage at which the effect on milk yield became visible ([2]; single oral dose): ≥ 20 mL
- dosage giving maximum response (milk yield decrease) ([2]; single oral dose): ≥ 20 mL

Compound: CCCN1CC(NS(=O)(=O)N(CC)CC)CC2Cc3c(O)cccc3CC21 (stereo not shown) [quinagolide]
- lower milk production compared with the placebo group (cows; 1 mg daily i.m. during 9 weeks, early lactation, last 4 weeks of treatment): 5.3 kg/day
- Milk production (cows; 4 mg i.m. twice a day from 5 days before until 13 days after dry-off, placebo 25 kg/day): 18 kg/day
- decreased milk production compared with the placebo group (cows; Ollier, Zhao and Lacasse (2014)): 7 L

Compound: C=CCN1C[C@H](C(=O)N(CCCN(C)C)C(=O)NCC)C[C@@H]2c3cccc4[nH]cc(c34)C[C@H]21 [cabergoline]
- duration of reduced prolactin after dry-off (dairy cows): up to 8 days
- milk reduction (dairy cows; dairy cows): 22%
- milk reduction (goats): 28%
